Values quoted from earlier work, collected in patent publication US10071054B2, “Econazole composition and methods of treatment therewith” (Exeltis USA Dermatology, Inc., priority 2010, dated 2018).

Legend:
[1] = Liao et al., Yao Xue Xue Bao 28 (1):22-7 (1993)
dermatophytes and yeasts = conditions: most strains of Epidermophyton floccosum, Microsporum audouinii, M. canis, M. gypseum, Trichophyton mentagrophytes, T. rubrum, T. tonsurans, Candida albicans, Malassezia furfur

Structure (SMILES)	antifungal activity of stereoisomer [1]	activity against dermatophytes and yeasts (dermatophytes and yeasts)
Clc1ccc(CO[C@@H](Cn2ccnc2)c2ccc(Cl)cc2Cl)cc1 [(R)-(−)-econazole]	greater antifungal activity	–
Clc1ccc(COC(Cn2ccnc2)c2ccc(Cl)cc2Cl)cc1 (centres unmarked) [Econazole nitrate]	–	shown activity
